“And” between values parts separate entries of the source, which are not always exact repeats. Equal entries are not always repeated.
Tests used:
[1] = system: Herpes Simplex Virus 1 (HSV-1); assay: Virus detection on Reichardt's dye-coated stickers; details: undiluted virus, 50 microliters, 3 minutes
aged chicken juice = assay: Comparative dyes dropped onto aged chicken juice on paper towel; details: aged chicken juice on SCOTT paper towel
E. coli [2] = assay: Dye-coated towel rubbed with dry E. coli colony; details: dry colony rubbed onto pre-moistened coated towel
Experimental: A test using the Reichardt's dye coated paper towel with a “dry” bacteria sample was carried out. Specifically, a dry sample of a colony of E. coli bacteria was lifted off an agar petri dish that contained a series of growing cultures. This dry sample was then rubbed onto a pre-moistened dye coated SCOTT® paper towel. The area where the colony was placed and rubbed turned colorless within 1 to 5 seconds.

[3] = Color change of dye with bacterial cell-wall compounds on paper towel; set-up: species or system E. coli; Streptococcus faecalis; details: detoxified LPS, lipoteichoic acid
P. aeruginosa [4] = assay: Titration of microorganisms with Reichardt's dye on cellulosic towel; details: Gram(-), 10^7 CFU/mL, 100 microliters
S. aureus [5] = assay: Dye coatings from different solvents on towels exposed to S. aureus
Experimental: The behavior of Reichardt's dye coatings made using various different solvents was evaluated. Solutions of Reichardt's dye in acetonitrile, isopropanol, and xylenes were prepared and the solutions were used to coat SCOTT® kitchen rolls towels and allowed to air-dry. […] Though the color of the dye was less intense than that seen with acetonitrile, the color change due to microbial contamination was still readily observed.

A. niger = assay: Titration of microorganisms with Reichardt's dye on cellulosic towel; details: mold, 10^5
vaccinia = details: undiluted virus, 50 microliters, 3 minutes
Influenza A = assay: Virus detection on Reichardt's dye-coated stickers; details: undiluted virus, 50 microliters, 3 minutes
[6] = system: aged chicken juice known to have a high bacterial count; assay: Dye coating with or without TWEEN 80 on ceramic surface exposed to aged chicken juice; details: coating with TWEEN 80 surfactant; 80 mg/10 mL acetonitrile
Excerpt: This solution was then used to coat a ceramic surface and allowed to air dry. […] After drying, a drop of aged chicken juice known to have a high bacterial count was placed on the each coating area. […] Furthermore, the addition of TWEEN® surfactant allowed for easy removal of the dye from the surface.

[7] = Reichardt's dye and TMB coated towel exposed to dilute bleach; details: towel coated with mixture of Reichardt's dye and TMB
P. aeruginosa [8] = assay: Delta E of dye-coated paper and label substrates versus bacteria concentration
Excerpt: (§1) More specifically, indicator strips coated with Reichardt's dye were exposed with decreasing amounts of the bacteria aliquots. A hand-held spectrophotometer was used to after application of each aliquot to determine “Delta E” value (calculated using L*, A*, and B* values) for each CFU/mL concentration. The results are set forth below in Table 4 (for paper) and Table 5 (for label). From the above, standard detection curves were generated as shown in FIGS. 5-7 for S. aureus, P. aeruginosa, and E. coli, respectively. As shown, each type of bacteria changed the color of the dye-treated substrate in a slightly different way, creating a unique standard curve. Thereafter, drops of unknown bacteria concentrations were placed on the stickers and a spectrophotometer was used to measure the “Delta E” of the resulting color. The numerical values obtained for each unknown sample set forth below in Tables 6-7. […] Although a few of the results were not completely accurate, the present inventors believe that improving the uniformity of the coating would further enhance detection accuracy.

E. coli [9] = assay: as above; details: for Delta E of unknown sample / log CFU/ml (estimated): E. coli
Excerpt: as §1

C. albicans = assay: Titration of microorganisms with Reichardt's dye on cellulosic towel; details: yeast, 10^7 CFU/mL, 100 microliters
measles = assay: Virus detection on Reichardt's dye-coated stickers; details: undiluted virus, 50 microliters, 3 minutes
aged raw chicken juice = assay: Dye spray on aged raw chicken juice pattern and re-colorization with 1 N NaOH
S. aureus [10] = assay: Visual quantification of S. aureus on dye-treated paper, with blind study
Experimental: The color differences at lower concentrations were less distinct, particularly for the brush-coated sheet. A blind study was then conducted. […] Concentrations of these three drops were unknown to two of the experiment participants. After approximately 2 minutes, the drops were removed and blotted. Using the control regions, the concentrations of each sample were each visually estimated by these two persons. Both persons correctly estimated the concentration of the first sample to be 10^6 CFU/mL. […] The persons, however, incorrectly estimated the third sample to be 10^3 CFU/mL. […] The present inventors believe, however, that the concentration of the chromogen and uniformity of the coating may be readily selected to achieve accurate results at such low concentrations.

L. acidophilus = assay: Titration of microorganisms with Reichardt's dye on cellulosic towel; details: Lactobacillus, Gram(+), 10^7 CFU/mL, 100 microliters; 160 mg/10 mL acetonitrile
[11] = paper substrate, P. aeruginosa, log CFU/ml (actual) 3
[12] = label substrate, log CFU/ml (actual) 7
[13] = paper substrate, log CFU/ml (actual) 3

[O-]c1c(-c2ccccc2)cc(-[n+]2c(-c3ccccc3)cc(-c3ccccc3)cc2-c2ccccc2)cc1-c1ccccc1 [Reichardt's dye, 4-(2,4,6-triphenylpyridinium-1-yl)-2,6-diphenylphenolate]
De-colorization of sticker [1]: stronger de-colorization of the sticker than that observed for Rhinovirus and Polio virus | Color change on dropping dye onto aged chicken juice (aged chicken juice): immediately changed color | Time to turn colorless (E. coli [2]): 1 to 5 s | Color change of dye with the other cell-wall compounds [3]: eventual color change | Amount of Dye Required for Persistent Color (P. aeruginosa [4]): 80 µL | Color change of coating where bacterial suspension was placed (S. aureus [5]; acetonitrile solution-based coating): rapid color change | Color change of coating where bacterial suspension was placed (S. aureus [5]; isopropanol and xylenes coatings): No visible color change | Amount of Dye Required for Persistent Color (A. niger): 50 µL | De-colorization of sticker (vaccinia): less than that observed for the other viruses | De-colorization of sticker (Influenza A): less than that observed for the other viruses | Time to color change [6]: 20 to 30 s | Color response to dilute bleach solution [7]: de-colorizing | Delta E of unknown sample (P. aeruginosa [8]; label substrate, P. aeruginosa, log CFU/ml (actual) 6): 4.4954 and 4.1002 | Delta E (P. aeruginosa) (P. aeruginosa [8]; label substrate, log CFU/ml 3): 3.8787 | Delta E (P. aeruginosa) (P. aeruginosa [8]; label substrate, log CFU/ml 4): 4.9473 | Delta E (P. aeruginosa) (P. aeruginosa [8]; label substrate, log CFU/ml 5): 4.6519 | Delta E (P. aeruginosa) (P. aeruginosa [8]; label substrate, log CFU/ml 6): 4.2419 | Delta E (P. aeruginosa) (P. aeruginosa [8]; label substrate, log CFU/ml 7): 6.9567 | Delta E of unknown sample (P. aeruginosa [8]; [11]): 1.0267 | log CFU/ml (estimated) (P. aeruginosa [8]; [11]): 5 | Delta E (P. aeruginosa) (P. aeruginosa [8]; paper substrate, log CFU/ml 3): 1.7900 | Delta E (P. aeruginosa) (P. aeruginosa [8]; paper substrate, log CFU/ml 4): 2.2358 | Delta E (P. aeruginosa) (P. aeruginosa [8]; paper substrate, log CFU/ml 5): 1.7151 | Delta E (P. aeruginosa) (P. aeruginosa [8]; paper substrate, log CFU/ml 6): 1.3193 | Delta E (P. aeruginosa) (P. aeruginosa [8]; paper substrate, log CFU/ml 7): 4.9569 | Delta E of unknown sample (E. coli [9]; [12]): 7.1157 | log CFU/ml (estimated) (E. coli [9]; [12]): 7 | Delta E (E. coli) (E. coli [9]; label substrate, log CFU/ml 3): 5.13 | Delta E (E. coli) (E. coli [9]; label substrate, log CFU/ml 4): 5.201 | Delta E (E. coli) (E. coli [9]; label substrate, log CFU/ml 5): 4.644 | Delta E (E. coli) (E. coli [9]; label substrate, log CFU/ml 6): 4.867 | Delta E (E. coli) (E. coli [9]; label substrate, log CFU/ml 7): 7.779 | Delta E of unknown sample (E. coli [9]; [13]): 1.3605 | log CFU/ml (estimated) (E. coli [9]; [13]): 5 | Delta E (E. coli) (E. coli [9]; paper substrate, log CFU/ml 3): 3.8228 | Delta E (E. coli) (E. coli [9]; paper substrate, log CFU/ml 4): 3.0123 | Delta E (E. coli) (E. coli [9]; paper substrate, log CFU/ml 5): 2.3320 | Delta E (E. coli) (E. coli [9]; paper substrate, log CFU/ml 6): 3.2574 | Delta E (E. coli) (E. coli [9]; paper substrate, log CFU/ml 7): 4.3483 | Delta E (E. coli) (E. coli [9]; paper substrate, log CFU/ml 8): 9.3642 | Amount of Dye Required for Persistent Color (C. albicans): 70 µL | De-colorization of sticker (measles): less than that observed for the other viruses | Effect of 1 N NaOH on area that changed color (aged raw chicken juice; drop of 1 N NaOH): re-colorization of that small spot | Color change with aged chicken juice pre-mixed with 1 molar NaOH (aged raw chicken juice; equal proportions, 30 seconds): rapid color change | S. aureus concentration giving obvious color change (S. aureus [10]; Neenah Bond paper, 80 mg/10 mL acetonitrile, about 2 minutes): ≥ 10^5 CFU/mL | Visually estimated concentration in blind study (S. aureus [10]; first sample, actual 10^6 CFU/mL, dip-coated sheet): 10^6 CFU/mL | Visually estimated concentration in blind study (S. aureus [10]; second sample, actual 10^5 CFU/mL, brush-coated sheet): 10^5 CFU/mL | Visually estimated concentration in blind study (S. aureus [10]; third sample, actual 10^4 CFU/mL, dip-coated sheet): 10^3 CFU/mL | Amount of Dye Required for Persistent Color (L. acidophilus): 110 µL
